Assay results: PubChem BioAssay (NCI)
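Grown in 96-well plates, cells were treated for 48 hours with each compound at five concentrations. Insufficient inhibition: endpoint recorded as highest concentration tested. TGI denotes the concentration required for complete inhibition of growth.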

Experiments:
Assay in all cases: growth of human tumour cells (NCI), 48 h
NCI-H226 lung = system: NCI-H226 lung
HCT-116 colon = system: HCT-116 colon
DU-145 prostate = system: DU-145 prostate
LOX IMVI melanoma = system: LOX IMVI melanoma
MDA-N = system: MDA-N
UACC-257 melanoma = system: UACC-257 melanoma
MALME-3M melanoma = system: MALME-3M melanoma
IGROV1 ovarian = system: IGROV1 ovarian
SN12C renal = system: SN12C renal
MOLT-4 leukemia = system: MOLT-4 leukemia
OVCAR-5 ovarian = system: OVCAR-5 ovarian
BT-549 breast = system: BT-549 breast
NCI/ADR-RES ovarian = system: NCI/ADR-RES ovarian

## CCCCCCCCCC1CC(=O)NCC(=O)NC(C(C)C)C(=O)NC(CC(C)C)C(=O)NC(C)C(=O)NC(C(C)C)C(=O)O1 (centres undefined)
NCI-H226 lung
  TGI: > 69.1 µM
HCT-116 colon
  TGI: > 66.3 µM
DU-145 prostate
  TGI: > 74.9 µM
LOX IMVI melanoma
  TGI: 30.8 µM
MDA-N
  TGI: > 100 µM
UACC-257 melanoma
  TGI: > 88 µM
MALME-3M melanoma
  TGI: > 61.9 µM
IGROV1 ovarian
  TGI: > 100 µM
SN12C renal
  TGI: 80.2 µM
MOLT-4 leukemia
  TGI: > 52.4 µM
OVCAR-5 ovarian
  TGI: > 64 µM
BT-549 breast
  TGI: > 100 µM
NCI/ADR-RES ovarian
  TGI: > 100 µM

## C1=NCCNCCN=Cc2ccccc2OCc2cccc(n2)COc2ccccc21
NCI-H226 lung
  TGI: > 75.7 µM
HCT-116 colon
  TGI: > 100 µM
DU-145 prostate
  TGI: > 100 µM
LOX IMVI melanoma
  TGI: 34 µM
MDA-N
  TGI: 31.4 µM
UACC-257 melanoma
  TGI: > 100 µM
MALME-3M melanoma
  TGI: > 80.7 µM
IGROV1 ovarian
  TGI: > 100 µM
SN12C renal
  TGI: > 100 µM
MOLT-4 leukemia
  TGI: > 82 µM
OVCAR-5 ovarian
  TGI: > 100 µM
BT-549 breast
  TGI: 44.4 µM
NCI/ADR-RES ovarian
  TGI: 21.1 µM

## O=C(OC(/C=C/c1ccccc1)P1(=O)N(Cc2ccccc2)[C@@H]2CCCC[C@H]2N1Cc1ccccc1)c1ccccc1 (some centres undefined)
NCI-H226 lung
  TGI: > 100 µM
HCT-116 colon
  TGI: > 100 µM
DU-145 prostate
  TGI: > 100 µM
LOX IMVI melanoma
  TGI: > 74.9 µM
MDA-N
  TGI: > 100 µM
UACC-257 melanoma
  TGI: > 54.7 µM
MALME-3M melanoma
  TGI: > 75.5 µM
IGROV1 ovarian
  TGI: > 25.6 µM
SN12C renal
  TGI: > 100 µM
MOLT-4 leukemia
  TGI: 6.47 µM
OVCAR-5 ovarian
  TGI: > 100 µM
BT-549 breast
  TGI: > 55.8 µM
NCI/ADR-RES ovarian
  TGI: > 100 µM

## O=[N+]([O-])c1ccc(NC(=S)Nc2ccccn2)cc1
NCI-H226 lung
  TGI: > 64.2 µM
HCT-116 colon
  TGI: > 100 µM
DU-145 prostate
  TGI: 35.5 µM
LOX IMVI melanoma
  TGI: > 100 µM
MDA-N
  TGI: > 100 µM
UACC-257 melanoma
  TGI: > 100 µM
MALME-3M melanoma
  TGI: > 100 µM
IGROV1 ovarian
  TGI: > 100 µM
SN12C renal
  TGI: > 100 µM
MOLT-4 leukemia
  TGI: > 100 µM
OVCAR-5 ovarian
  TGI: > 100 µM
BT-549 breast
  TGI: > 100 µM
NCI/ADR-RES ovarian
  TGI: > 100 µM

## Cc1ccc(/C(O)=C/c2nc3ccccc3[nH]c2=O)c(C)c1
NCI-H226 lung
  TGI: 37 µM
HCT-116 colon
  TGI: 55.8 µM
DU-145 prostate
  TGI: > 70.5 µM
LOX IMVI melanoma
  TGI: > 100 µM
MDA-N
  TGI: > 100 µM
UACC-257 melanoma
  TGI: > 75.9 µM
MALME-3M melanoma
  TGI: 98.8 µM
IGROV1 ovarian
  TGI: > 59.9 µM
SN12C renal
  TGI: 69.2 µM
MOLT-4 leukemia
  TGI: > 100 µM
OVCAR-5 ovarian
  TGI: > 100 µM
BT-549 breast
  TGI: > 57.5 µM
NCI/ADR-RES ovarian
  TGI: 55.6 µM

## C/C1=C\CC/C(C)=C/C=C(/C(C)C)CC/C(C(=O)O)=C/CC1
NCI-H226 lung
  TGI: > 100 µM
HCT-116 colon
  TGI: > 100 µM
DU-145 prostate
  TGI: > 100 µM
LOX IMVI melanoma
  TGI: > 100 µM
MDA-N
  TGI: > 100 µM
UACC-257 melanoma
  TGI: > 100 µM
MALME-3M melanoma
  TGI: > 100 µM
IGROV1 ovarian
  TGI: > 100 µM
SN12C renal
  TGI: > 100 µM
MOLT-4 leukemia
  TGI: > 100 µM
OVCAR-5 ovarian
  TGI: > 100 µM
BT-549 breast
  TGI: > 100 µM
NCI/ADR-RES ovarian
  TGI: > 100 µM

## COC(=O)/C=C(/C(=O)OC)c1c(C)cc2c(C)cc(C)cc(C)c1-2
NCI-H226 lung
  TGI: 61.6 µM
HCT-116 colon
  TGI: 18.5 µM
DU-145 prostate
  TGI: > 91.8 µM
LOX IMVI melanoma
  TGI: > 57.8 µM
MDA-N
  TGI: 5.16 µM
UACC-257 melanoma
  TGI: > 77.5 µM
MALME-3M melanoma
  TGI: > 65.5 µM
IGROV1 ovarian
  TGI: > 100 µM
SN12C renal
  TGI: 40.2 µM
MOLT-4 leukemia
  TGI: > 100 µM
OVCAR-5 ovarian
  TGI: > 78.8 µM
BT-549 breast
  TGI: 47.1 µM
NCI/ADR-RES ovarian
  TGI: > 64.6 µM

## CC(C)(C)[Si](C)(C)OCC#C[C@@]1(O)CCCCC1CC(Sc1ccccc1)Sc1ccccc1 (some centres undefined)
NCI-H226 lung
  TGI: 34.8 µM
HCT-116 colon
  TGI: 24 µM
DU-145 prostate
  TGI: 29.8 µM
LOX IMVI melanoma
  TGI: 34.5 µM
MDA-N
  TGI: 37.7 µM
UACC-257 melanoma
  TGI: 29.5 µM
MALME-3M melanoma
  TGI: 32.3 µM
IGROV1 ovarian
  TGI: 33.3 µM
SN12C renal
  TGI: 23.8 µM
MOLT-4 leukemia
  TGI: 51 µM
OVCAR-5 ovarian
  TGI: 27.2 µM
BT-549 breast
  TGI: 36.3 µM
NCI/ADR-RES ovarian
  TGI: 39 µM

## COc1cccc(C[C@H]2COC(=O)[C@]2(O)Cc2cccc(OC)c2)c1
NCI-H226 lung
  TGI: > 100 µM
HCT-116 colon
  TGI: > 100 µM
DU-145 prostate
  TGI: > 100 µM
LOX IMVI melanoma
  TGI: > 100 µM
MDA-N
  TGI: > 100 µM
UACC-257 melanoma
  TGI: > 100 µM
MALME-3M melanoma
  TGI: > 100 µM
IGROV1 ovarian
  TGI: > 100 µM
SN12C renal
  TGI: > 100 µM
MOLT-4 leukemia
  TGI: > 100 µM
OVCAR-5 ovarian
  TGI: > 100 µM
BT-549 breast
  TGI: > 100 µM
NCI/ADR-RES ovarian
  TGI: > 100 µM

## COc1ccc(/C=C2\CN(C)CC3C2=NC(=S)NC3c2ccc(OC)cc2)cc1 (centres undefined)
NCI-H226 lung
  TGI: > 100 µM
HCT-116 colon
  TGI: > 44.7 µM
DU-145 prostate
  TGI: 26.4 µM
LOX IMVI melanoma
  TGI: > 100 µM
MDA-N
  TGI: 3.74 µM
UACC-257 melanoma
  TGI: > 100 µM
MALME-3M melanoma
  TGI: > 31.4 µM
IGROV1 ovarian
  TGI: > 22.6 µM
SN12C renal
  TGI: > 100 µM
MOLT-4 leukemia
  TGI: > 81.1 µM
OVCAR-5 ovarian
  TGI: > 86 µM
BT-549 breast
  TGI: > 100 µM
NCI/ADR-RES ovarian
  TGI: 19.1 µM

## COC(=O)CCC(C)C1CCC2C3CCC4CC5CCC4(C)C3(O5)C(Br)C(Br)C12C (centres undefined)
NCI-H226 lung
  TGI: > 100 µM
HCT-116 colon
  TGI: > 100 µM
DU-145 prostate
  TGI: > 100 µM
LOX IMVI melanoma
  TGI: > 100 µM
MDA-N
  TGI: > 100 µM
UACC-257 melanoma
  TGI: > 100 µM
MALME-3M melanoma
  TGI: > 100 µM
IGROV1 ovarian
  TGI: > 100 µM
SN12C renal
  TGI: > 100 µM
MOLT-4 leukemia
  TGI: > 100 µM
OVCAR-5 ovarian
  TGI: > 100 µM
BT-549 breast
  TGI: > 100 µM
NCI/ADR-RES ovarian
  TGI: > 100 µM

## CN(C)/C=C/c1ccncc1
NCI-H226 lung
  TGI: > 100 µM
HCT-116 colon
  TGI: > 100 µM
DU-145 prostate
  TGI: > 100 µM
LOX IMVI melanoma
  TGI: > 100 µM
MDA-N
  TGI: > 100 µM
UACC-257 melanoma
  TGI: > 100 µM
MALME-3M melanoma
  TGI: > 100 µM
IGROV1 ovarian
  TGI: > 100 µM
SN12C renal
  TGI: > 100 µM
MOLT-4 leukemia
  TGI: > 100 µM
OVCAR-5 ovarian
  TGI: > 100 µM
BT-549 breast
  TGI: > 100 µM
NCI/ADR-RES ovarian
  TGI: > 100 µM

## Clc1ccc(-c2nc3ccc(C45CC6CC(CC(C6)C4)C5)cc3[nH]2)cc1
NCI-H226 lung
  TGI: > 100 µM
HCT-116 colon
  TGI: > 100 µM
DU-145 prostate
  TGI: > 100 µM
LOX IMVI melanoma
  TGI: > 100 µM
MDA-N
  TGI: > 100 µM
UACC-257 melanoma
  TGI: > 65.7 µM
MALME-3M melanoma
  TGI: > 100 µM
IGROV1 ovarian
  TGI: > 100 µM
SN12C renal
  TGI: > 100 µM
MOLT-4 leukemia
  TGI: > 100 µM
OVCAR-5 ovarian
  TGI: > 100 µM
BT-549 breast
  TGI: 98.3 µM
NCI/ADR-RES ovarian
  TGI: > 100 µM
